Results on twelve compounds are retold here after patent US20250129091A1, “THIENOPYRROLOTRIAZINE COMPOUNDS, THEIR PREPARATION AND THEIR THERAPEUTIC USE” (Sanofi, priority 2022, published 2025).

SMILES strings stand for the structures. Where a name gives a salt, the structure may show the parent alone. Some results are limits rather than exact numbers.

The assay has as its system NLRP3 inflammasome. The experiment in a line: IL-1β secretion assay (LPS-primed, nigericin-activated THP-1 cells, MSD readout). In kind it is cell-based. Particulars: Homo sapiens, THP-1, LPS-primed, read-out: IL1b IC50. Here is the method:
Monocytic THP-1 cells (DSMZ) were maintained in RPMI media (RPMI 1640 Medium (1×) +10% FBS, Eurobio CVFSVFOO—OU). Cells were then plated at 16,000 cells per well in 96-well round bottom cell culture plates (TPP, ref 92097) and maintained with RPMI and 0.1% Bovine Serum Albumin solution. Activation of the NLRP3 inflammasome requires both an NF-kB-dependent priming step and the addition of a NLRP3 activator. The priming step was induced by LPS (10 ng/mL, Sigma, ref:L4391) for 3 h at 37° C., then compound, in a 1:3.10 serial dilution series in DMSO 1:100, and the activator nigericin (Sigma Aldrich, ref: SML1779) 10 μM (final concentration) were added to the cells and co-incubated for 2 h. 50 μL supernatant was removed, and IL-1β levels were monitored using an MSD assay (Electro Chemical Luminescence Immunoassay (ECLI) according to manufacturers' instructions.
IC50 values were calculated from the plot of percentage of inhibition versus the inhibitor concentration by a logistics fit according to: y=A2+(A1−A2)/(1+(x/IC50)^p) where y is the %-inhibition at the inhibitor concentration, x. A1 is the lowest inhibition value, i.e., 0%, and A2 the maximum inhibition value, i.e., 100%. The exponent, p, is the Hill coefficient. The curve fitting was conducted with an internally developed software.
Turning to `CC(C)c1nn(CC(=O)Nc2ncncc2F)c(=O)c2cc3ccsc3n12` [Example 70, N-(5-fluoropyrimidin-4-yl)-2-(12-isopropyl-9-oxo-3-thia-1,10,11-triazatricyclo[6.4.0.02,6]dodeca-2(6),4,7,11-tetraen-10-yl)acetamide], the half-maximal inhibitory concentration (IC50) was 148 nM.

Take `COCC(C)N1CCC[C@@H](NC(=O)Cn2nc(C(C)C)n3c(cc4ccsc43)c2=O)C1` (stereo partly drawn) [Example 64, 2-(8-isopropyl-5-oxothieno[3′,2′:4,5]pyrrolo[1,2-d][1,2,4]triazin-6(5H)-yl)-N-((3R)-1-(1-methoxypropan-2-yl)piperidin-3-yl)acetamide]: the IC50 came out at 109 nM.

With `CC(C)c1nn(CC(=O)Nc2cncnc2)c(=O)c2cc3ccsc3n12` [Example 84, 2-(8-isopropyl-5-oxothieno[3′,2′:4,5]pyrrolo[1,2-d][1,2,4]triazin-6(5H)-yl)-N-pyrimidin-5-ylacetamide], the half-maximal inhibitory concentration (IC50) is 5950 nM.

Regarding `CC(C)c1nn(CC(=O)Nc2ccncc2)c(=O)c2cc3ccsc3n12` [Example 67, 2-(12-isopropyl-9-oxo-3-thia-1,10,11-triazatricyclo[6.4.0.02,6]dodeca-2(6),4,7,11-tetraen-10-yl)-N-(4-pyridyl)acetamide], the half-maximal inhibitory concentration (IC50) was found to be 446 nM.

In the case of `CC(C)c1nn(CC(=O)N[C@@H]2CCCN(C(C)C)C2)c(=O)c2cc3ccsc3n12` [Example 48, 2-(12-isopropyl-9-oxo-3-thia-1,10,11-triazatricyclo[6.4.0.02,6]dodeca-2(6),4,7,11-tetraen-10-yl)-N-[(3R)-1-isopropyl-3-piperidyl]acetamide], the concentration for half-maximal inhibition (IC50) is 58.9 nM.

In the case of `CC(C)c1nn(CC(=O)N[C@@H]2CCCN(CCC#N)C2)c(=O)c2cc3ccsc3n12` [Example 77, N-[(3R)-1-(2-cyanoethyl)piperidin-3-yl]-2-(8-isopropyl-5-oxothieno[3′,2′:4,5]pyrrolo[1,2-d][1,2,4]triazin-6(5H)-yl)acetamide], the half-inhibitory concentration (IC50) came to 78 nM.

Take `CC(C)c1nn(CC(=O)NCC2CC(=O)N(C(C)(C)C)C2)c(=O)c2cc3ccsc3n12` (stereo not drawn) [Example 55, N-[(1-tert-butyl-5-oxo-pyrrolidin-3-yl)methyl]-2-(12-isopropyl-9-oxo-3-thia-1,10,11-triazatricyclo[6.4.0.02,6]dodeca-2(6),4,7,11-tetraen-10-yl)acetamide]: the IC50 amounted to 3230 nM.

For `COCc1nn(CC(=O)N[C@@H]2CCCN(C3CCC3)C2)c(=O)c2cc3cc(Cl)sc3n12` [Example 29, (R)-2-(2-chloro-8-(methoxymethyl)-5-oxothieno[3′,2′:4,5]pyrrolo[1,2-d][1,2,4]triazin-6(5H)-yl)-N-(1-cyclobutylpiperidin-3-yl)acetamide formate], the concentration for half-maximal inhibition (IC50) came to 1140 nM.

Consider `CC(C)c1nn(CC(=O)NC2C[C@@H]3CN[C@H]2C3)c(=O)c2cc3ccsc3n12` (stereo partly drawn) [Example 88, N-[(1S,4R)-2-azabicyclo[2.2.1]heptan-6-yl]-2-(12-isopropyl-9-oxo-3-thia-1,10,11-triazatricyclo[6.4.0.02,6]dodeca-2(6),4,7,11-tetraen-10-yl)acetamidehydrochloride], for which the IC50 was > 10000 nM.

On to `CC(C)c1nn(CC(=O)N[C@@H]2CCCN(C(C)(C)CO)C2)c(=O)c2cc3ccsc3n12` [Example 79, N-[(3R)-1-(1-hydroxy-2-methylpropan-2-yl)piperidin-3-yl]-2-(8-isopropyl-5-oxothieno [3′,2′:4,5]pyrrolo[1,2-d][1,2,4]triazin-6(5H)-yl)acetamide], for which the IC50 came out at 29 nM.

Turning to `CC(C)c1nn(CC(=O)NC2CCN(C)C(=O)C2)c(=O)c2cc3ccsc3n12` (stereo not drawn) [Example 46, 2-(8-isopropyl-5-oxothieno[3′,2′:4,5]pyrrolo[1,2-d][1,2,4]triazin-6(5H)-yl)-N-(1-methyl-2-oxopiperidin-4-yl)acetamide], the IC50 was found to be 8200 nM.

Take `COCc1nn(CC(=O)N[C@@H]2CCCN(C3CC3)C2)c(=O)c2cc3ccsc3n12` [Example 33, (R)—N-(1-cyclopropylpiperidin-3-yl)-2-(8-(methoxymethyl)-5-oxothieno[3′,2′:4,5]pyrrolo[1,2-d][1,2,4]triazin-6(5H)-yl)acetamide 2,2,2-trifluoroacetate]: the IC50 worked out at 2750 nM.

Broadly, the IC50 is the concentration needed to halve the response being measured.
